From ChEMBL document CHEMBL4842385, “Indirubin Derivatives as Dual Inhibitors Targeting Cyclin-Dependent Kinase and Histone Deacetylase for Treating Cancer” (J Med Chem, 2021)

Columns and labels:
[1] = molecular target: Histone deacetylase 3/Nuclear receptor corepressor 2 (HDAC3/NCoR2) (Homo sapiens, UniProt O15379); assay: Inhibition of C-terminal His-tagged recombinant human HDAC3 (1 to 428 residues)/N-terminal GST-tagged recombinant human NCoR2 (395 to 489 residues) co-expressed in baculovirus infected Sf9 cells measured after 30 mins by fluorescence microplate reader assay
Histone deacetylase 4 = Histone deacetylase 4 (Homo sapiens, UniProt P56524); assay: Inhibition of HDAC4 (unknown origin) measured after 30 mins by fluorescence microplate reader assay
[2] = molecular target: T1, Protein deacetylase HDAC6 (Homo sapiens, UniProt Q9UBN7); assay: Inhibition of recombiant human HDAC6 using fluorogenic HDAC substrate 3 measured after 30 mins by fluorescence microplate reader assay
T1 sequence (Q9UBN7 whole entry): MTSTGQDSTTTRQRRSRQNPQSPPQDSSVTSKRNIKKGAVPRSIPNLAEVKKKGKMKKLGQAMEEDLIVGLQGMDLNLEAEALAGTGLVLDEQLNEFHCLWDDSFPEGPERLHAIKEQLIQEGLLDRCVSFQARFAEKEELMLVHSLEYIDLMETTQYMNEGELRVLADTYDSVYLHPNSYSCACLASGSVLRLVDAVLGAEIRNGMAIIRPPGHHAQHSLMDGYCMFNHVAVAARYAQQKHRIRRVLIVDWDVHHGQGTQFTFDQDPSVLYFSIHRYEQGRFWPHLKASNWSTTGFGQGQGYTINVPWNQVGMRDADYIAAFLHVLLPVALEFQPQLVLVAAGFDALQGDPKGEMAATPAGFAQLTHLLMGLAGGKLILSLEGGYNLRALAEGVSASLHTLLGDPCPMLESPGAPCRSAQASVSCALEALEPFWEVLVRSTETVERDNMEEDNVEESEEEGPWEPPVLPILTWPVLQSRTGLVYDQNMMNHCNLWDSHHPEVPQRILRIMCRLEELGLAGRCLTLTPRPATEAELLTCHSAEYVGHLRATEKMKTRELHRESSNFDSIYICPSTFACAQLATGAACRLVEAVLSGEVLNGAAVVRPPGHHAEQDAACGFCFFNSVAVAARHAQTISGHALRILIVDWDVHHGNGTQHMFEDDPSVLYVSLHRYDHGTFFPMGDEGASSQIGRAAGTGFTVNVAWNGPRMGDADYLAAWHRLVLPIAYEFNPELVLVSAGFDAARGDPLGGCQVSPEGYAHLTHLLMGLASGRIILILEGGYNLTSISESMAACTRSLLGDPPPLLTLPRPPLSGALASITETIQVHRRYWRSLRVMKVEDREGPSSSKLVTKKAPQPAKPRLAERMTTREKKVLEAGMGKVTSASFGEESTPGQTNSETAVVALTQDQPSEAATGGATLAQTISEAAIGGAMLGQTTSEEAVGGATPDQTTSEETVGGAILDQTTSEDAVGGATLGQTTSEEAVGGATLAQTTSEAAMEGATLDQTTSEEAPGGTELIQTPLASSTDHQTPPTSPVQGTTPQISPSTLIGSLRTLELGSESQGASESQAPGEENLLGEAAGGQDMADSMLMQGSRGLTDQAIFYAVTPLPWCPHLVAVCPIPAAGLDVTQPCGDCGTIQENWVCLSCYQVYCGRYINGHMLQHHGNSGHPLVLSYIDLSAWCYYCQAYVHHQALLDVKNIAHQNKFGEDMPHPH

Histone deacetylase 8 = molecular target: T2, Histone deacetylase 8 (Homo sapiens, UniProt Q9BY41); assay: Inhibition of HDAC8 (unknown origin) measured after 30 mins by fluorescence microplate reader assay
T2 sequence (Q9BY41 whole entry): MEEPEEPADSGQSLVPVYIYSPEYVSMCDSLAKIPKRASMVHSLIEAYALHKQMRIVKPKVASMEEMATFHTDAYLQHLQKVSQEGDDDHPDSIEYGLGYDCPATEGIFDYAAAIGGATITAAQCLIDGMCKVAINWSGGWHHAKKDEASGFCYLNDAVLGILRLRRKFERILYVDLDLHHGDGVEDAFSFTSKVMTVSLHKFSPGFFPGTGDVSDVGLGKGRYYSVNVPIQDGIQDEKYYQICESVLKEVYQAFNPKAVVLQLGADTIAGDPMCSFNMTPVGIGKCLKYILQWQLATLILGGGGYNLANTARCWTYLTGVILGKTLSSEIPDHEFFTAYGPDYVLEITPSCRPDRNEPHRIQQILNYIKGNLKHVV

Histone deacetylase 11 = molecular target: T3, Histone deacetylase 11 (Homo sapiens, UniProt Q96DB2); assay: Inhibition of recombinant human HDAC11 measured after 30 mins by fluorescence microplate reader assay
T3 sequence (Q96DB2 whole entry): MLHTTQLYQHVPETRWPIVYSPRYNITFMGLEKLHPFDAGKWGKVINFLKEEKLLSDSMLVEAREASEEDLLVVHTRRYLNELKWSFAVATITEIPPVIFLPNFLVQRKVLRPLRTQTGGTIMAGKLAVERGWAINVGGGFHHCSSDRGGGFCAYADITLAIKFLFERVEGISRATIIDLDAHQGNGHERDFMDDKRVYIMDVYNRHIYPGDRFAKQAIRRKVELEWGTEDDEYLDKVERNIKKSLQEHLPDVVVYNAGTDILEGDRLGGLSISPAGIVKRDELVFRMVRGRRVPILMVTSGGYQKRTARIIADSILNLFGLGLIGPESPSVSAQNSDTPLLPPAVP

CDK2/Cyclin A2 = CDK2/Cyclin A2 (Homo sapiens, UniProt P24941); assay: Inhibition of full length human CDK2 (1 to 298 end residues)/N-terminal GST-tagged CyclinA2 (1 to 432 residues) expressed in baculovirus expression system preincubated for 10 mins followed by substrate and ATP addition by mobility shift assay
CDK6/cyclin D3 = CDK6/cyclin D3 (Homo sapiens, UniProt Q00534); assay: Inhibition of full length human CDK6 (1 to 326 end residues)/N-terminal GST-fusion tagged CyclinD3 (1 to 292 residues) expressed in baculovirus expression system preincubated for 10 mins followed by substrate and ATP addition by mobility shift assay
[3] = molecular target: CDK6/cyclin D3 (Homo sapiens) (UniProt P30281+Q00534); settings: dose 100.0 nM, time 10.0 min

Chain of Histone deacetylase 4 (P56524 whole entry): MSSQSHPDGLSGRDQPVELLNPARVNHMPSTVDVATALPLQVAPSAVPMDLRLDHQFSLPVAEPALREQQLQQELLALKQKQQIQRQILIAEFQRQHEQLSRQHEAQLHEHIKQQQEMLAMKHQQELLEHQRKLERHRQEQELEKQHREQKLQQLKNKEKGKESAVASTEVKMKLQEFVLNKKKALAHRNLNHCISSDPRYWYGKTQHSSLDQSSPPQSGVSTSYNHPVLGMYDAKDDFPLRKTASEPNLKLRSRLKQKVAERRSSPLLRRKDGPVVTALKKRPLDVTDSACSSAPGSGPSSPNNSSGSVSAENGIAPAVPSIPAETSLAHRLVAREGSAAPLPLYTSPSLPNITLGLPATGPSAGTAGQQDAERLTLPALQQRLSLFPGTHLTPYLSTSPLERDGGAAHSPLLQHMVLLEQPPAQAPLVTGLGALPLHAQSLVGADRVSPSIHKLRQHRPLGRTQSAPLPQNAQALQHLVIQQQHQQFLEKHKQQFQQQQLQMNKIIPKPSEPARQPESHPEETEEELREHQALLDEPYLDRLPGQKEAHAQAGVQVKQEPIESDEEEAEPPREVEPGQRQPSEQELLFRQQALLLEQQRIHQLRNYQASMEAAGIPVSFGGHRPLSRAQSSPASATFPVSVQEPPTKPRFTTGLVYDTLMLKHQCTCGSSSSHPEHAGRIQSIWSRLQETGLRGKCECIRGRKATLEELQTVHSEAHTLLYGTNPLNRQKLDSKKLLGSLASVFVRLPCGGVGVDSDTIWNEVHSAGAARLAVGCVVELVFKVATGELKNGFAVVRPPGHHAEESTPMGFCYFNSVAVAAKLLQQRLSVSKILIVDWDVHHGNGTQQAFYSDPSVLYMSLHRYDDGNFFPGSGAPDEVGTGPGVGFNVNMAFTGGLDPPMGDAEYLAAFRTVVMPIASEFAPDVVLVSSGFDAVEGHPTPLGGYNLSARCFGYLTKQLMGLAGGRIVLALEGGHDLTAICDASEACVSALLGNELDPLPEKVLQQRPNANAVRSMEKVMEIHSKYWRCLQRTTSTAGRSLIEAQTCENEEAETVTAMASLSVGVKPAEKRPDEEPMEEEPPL
Chain of CDK6/cyclin D3 (P30281 whole entry, the tested form may be a part): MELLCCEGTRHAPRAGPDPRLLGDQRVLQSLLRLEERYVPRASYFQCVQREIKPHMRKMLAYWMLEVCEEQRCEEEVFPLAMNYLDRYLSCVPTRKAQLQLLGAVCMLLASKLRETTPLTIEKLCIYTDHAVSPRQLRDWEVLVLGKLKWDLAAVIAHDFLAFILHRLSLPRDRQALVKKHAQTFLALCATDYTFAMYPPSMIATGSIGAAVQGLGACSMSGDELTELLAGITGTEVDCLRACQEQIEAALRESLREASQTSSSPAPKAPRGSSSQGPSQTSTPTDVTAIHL
Chain of CDK6/cyclin D3 (Q00534 whole entry, the tested form may be a part): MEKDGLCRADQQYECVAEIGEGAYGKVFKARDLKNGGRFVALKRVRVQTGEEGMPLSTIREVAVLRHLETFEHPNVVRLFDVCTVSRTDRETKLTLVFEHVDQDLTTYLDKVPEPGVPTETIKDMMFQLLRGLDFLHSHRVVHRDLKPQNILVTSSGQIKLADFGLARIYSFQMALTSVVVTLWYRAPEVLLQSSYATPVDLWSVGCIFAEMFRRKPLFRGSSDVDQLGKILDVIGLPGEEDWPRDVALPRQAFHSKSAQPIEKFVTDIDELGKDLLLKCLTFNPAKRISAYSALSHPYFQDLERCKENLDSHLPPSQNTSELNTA
Chain of Histone deacetylase 3/Nuclear receptor corepressor 2 (HDAC3/NCoR2) (O15379 whole entry, the tested form may be a part): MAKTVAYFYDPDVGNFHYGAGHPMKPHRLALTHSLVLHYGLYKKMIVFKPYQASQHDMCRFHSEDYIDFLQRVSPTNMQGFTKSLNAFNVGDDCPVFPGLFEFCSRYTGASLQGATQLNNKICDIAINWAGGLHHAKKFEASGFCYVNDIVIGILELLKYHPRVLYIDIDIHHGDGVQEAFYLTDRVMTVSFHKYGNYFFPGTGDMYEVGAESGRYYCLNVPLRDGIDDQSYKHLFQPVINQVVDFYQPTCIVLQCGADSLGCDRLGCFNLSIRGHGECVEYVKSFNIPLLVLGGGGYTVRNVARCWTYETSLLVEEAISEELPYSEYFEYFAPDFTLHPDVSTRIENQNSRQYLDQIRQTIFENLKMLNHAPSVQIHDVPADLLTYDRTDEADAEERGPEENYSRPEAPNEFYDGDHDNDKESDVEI
Chain of Histone deacetylase 3/Nuclear receptor corepressor 2 (HDAC3/NCoR2) (Q9Y618 whole entry, further chain, the tested form may be a part): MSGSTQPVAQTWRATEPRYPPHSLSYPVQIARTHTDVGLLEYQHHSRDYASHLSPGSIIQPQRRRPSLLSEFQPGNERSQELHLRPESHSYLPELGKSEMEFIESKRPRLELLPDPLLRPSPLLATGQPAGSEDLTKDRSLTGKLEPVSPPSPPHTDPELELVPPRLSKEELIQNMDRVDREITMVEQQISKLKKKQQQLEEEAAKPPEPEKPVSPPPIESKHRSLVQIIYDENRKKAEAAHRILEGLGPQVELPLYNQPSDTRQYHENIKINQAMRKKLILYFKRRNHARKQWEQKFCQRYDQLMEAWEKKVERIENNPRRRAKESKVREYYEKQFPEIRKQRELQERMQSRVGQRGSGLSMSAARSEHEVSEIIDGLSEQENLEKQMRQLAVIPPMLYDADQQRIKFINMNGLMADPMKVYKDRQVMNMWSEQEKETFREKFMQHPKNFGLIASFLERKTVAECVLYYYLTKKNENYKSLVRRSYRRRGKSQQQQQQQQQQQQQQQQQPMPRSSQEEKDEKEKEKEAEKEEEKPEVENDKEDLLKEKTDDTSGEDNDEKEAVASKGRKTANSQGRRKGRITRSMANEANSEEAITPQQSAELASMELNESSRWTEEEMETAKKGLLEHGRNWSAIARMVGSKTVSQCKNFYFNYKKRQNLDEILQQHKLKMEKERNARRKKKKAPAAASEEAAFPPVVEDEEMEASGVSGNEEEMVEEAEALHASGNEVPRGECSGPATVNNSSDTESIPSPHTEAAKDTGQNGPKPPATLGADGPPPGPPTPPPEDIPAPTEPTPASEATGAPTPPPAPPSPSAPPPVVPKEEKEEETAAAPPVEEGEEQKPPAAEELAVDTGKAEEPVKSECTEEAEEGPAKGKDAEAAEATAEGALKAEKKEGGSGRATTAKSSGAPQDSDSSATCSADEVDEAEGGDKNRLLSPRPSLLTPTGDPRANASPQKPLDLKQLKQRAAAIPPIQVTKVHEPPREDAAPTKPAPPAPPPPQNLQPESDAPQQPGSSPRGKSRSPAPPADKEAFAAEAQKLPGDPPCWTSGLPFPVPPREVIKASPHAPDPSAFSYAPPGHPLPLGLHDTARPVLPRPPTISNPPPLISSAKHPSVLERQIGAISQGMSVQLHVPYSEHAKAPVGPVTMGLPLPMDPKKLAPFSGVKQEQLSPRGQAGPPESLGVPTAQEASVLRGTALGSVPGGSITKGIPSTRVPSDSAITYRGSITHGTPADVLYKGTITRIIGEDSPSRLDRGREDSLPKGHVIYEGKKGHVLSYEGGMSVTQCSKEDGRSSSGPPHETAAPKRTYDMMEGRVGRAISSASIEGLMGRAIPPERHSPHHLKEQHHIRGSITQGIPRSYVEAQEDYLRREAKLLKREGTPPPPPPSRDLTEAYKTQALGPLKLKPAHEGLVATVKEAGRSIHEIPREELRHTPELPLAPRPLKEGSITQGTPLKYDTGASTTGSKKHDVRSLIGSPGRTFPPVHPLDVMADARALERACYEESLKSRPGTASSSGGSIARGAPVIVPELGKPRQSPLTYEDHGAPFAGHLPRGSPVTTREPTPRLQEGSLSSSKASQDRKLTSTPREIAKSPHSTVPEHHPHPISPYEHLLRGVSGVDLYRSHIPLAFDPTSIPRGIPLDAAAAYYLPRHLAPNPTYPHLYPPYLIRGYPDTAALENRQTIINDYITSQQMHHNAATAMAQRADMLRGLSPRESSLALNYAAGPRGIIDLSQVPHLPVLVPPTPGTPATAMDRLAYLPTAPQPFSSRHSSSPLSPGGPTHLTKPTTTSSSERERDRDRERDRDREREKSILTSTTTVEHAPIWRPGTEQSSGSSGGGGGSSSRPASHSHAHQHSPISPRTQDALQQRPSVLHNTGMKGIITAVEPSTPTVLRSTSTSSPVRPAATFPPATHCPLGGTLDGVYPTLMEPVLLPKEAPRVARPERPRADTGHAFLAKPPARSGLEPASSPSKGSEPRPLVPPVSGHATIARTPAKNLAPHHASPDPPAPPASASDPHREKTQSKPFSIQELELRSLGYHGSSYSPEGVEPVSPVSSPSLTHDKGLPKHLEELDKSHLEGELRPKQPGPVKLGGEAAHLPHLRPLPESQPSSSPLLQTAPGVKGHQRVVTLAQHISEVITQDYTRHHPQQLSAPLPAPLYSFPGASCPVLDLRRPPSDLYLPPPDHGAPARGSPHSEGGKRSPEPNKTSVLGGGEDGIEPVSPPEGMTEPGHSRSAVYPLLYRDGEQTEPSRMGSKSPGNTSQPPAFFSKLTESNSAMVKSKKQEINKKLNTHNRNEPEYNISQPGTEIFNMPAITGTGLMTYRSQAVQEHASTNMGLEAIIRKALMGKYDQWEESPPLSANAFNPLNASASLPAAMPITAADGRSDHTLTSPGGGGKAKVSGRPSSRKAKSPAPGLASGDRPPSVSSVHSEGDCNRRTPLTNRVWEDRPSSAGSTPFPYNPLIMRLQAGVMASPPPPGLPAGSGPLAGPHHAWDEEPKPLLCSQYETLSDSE

Row | SMILES | IC50 [1] | IC50 (Histone deacetylase 4) | IC50 [2] | IC50 (Histone deacetylase 8) | IC50 (Histone deacetylase 11) | IC50 (CDK2/Cyclin A2) | IC50 (CDK6/cyclin D3) | inhibition [3]
1 | O=C(CCCO/N=C1/C(=C2/C(=O)Nc3ccccc32)Nc2ccccc21)NO | > 5000 nM | > 5000 nM | 129 nM | > 5000 nM | > 5000 nM | 60.9 nM | 27.2 nM | 76.6%
2 | O=C(O)CCCO/N=C1/C(=C2/C(=O)Nc3ccccc32)Nc2ccccc21 | > 5000 nM | > 5000 nM | > 5000 nM | > 5000 nM | > 5000 nM | 119 nM | 68.2 nM | 41.3%
3 | C#CCN1C(=O)/C(=C2\Nc3ccccc3\C2=N/OCCCC(=O)NO)c2ccccc21 | > 100000 nM | > 100000 nM | 1870 nM | > 5000 nM | > 5000 nM | > 1000 nM | > 1000 nM | 0.8%
